Data set [1] can be described thus: Metal ion sensing: fluorescence titration with Sn^2+ and selectivity against various metal ions. Type of data set: physicochemical. To be noted: for fluorescence at 580 nm / fluorescence of the solution / selectivity on sensing Sn^2+: metal ions that turn fluorescence on: 20 µM in ethanol-water (1: 1, v/v, PH 7.04); for fluorescence at 580 nm: addition of Sn^2+ (0-20 eq); for fluorescence at 580 nm / selectivity on sensing Sn^2+: metal ions that turn fluorescence on / fluorescence enhancement by other transition and heavy metal ions: excitation 560 nm; for fluorescence of the solution: no metal ion added; for selectivity on sensing Sn^2+: metal ions that turn fluorescence on: various metal ions; for fluorescence enhancement by other transition and heavy metal ions: 20 µM, K^+, Ag^+, Ca^2+, Mg^2+, Zn^2+, Pb^2+, Ni^2+, Mn^2+, Co^2+, Cd^2+, Hg^2+.
Procedure: Solutions of the metal ions (10.0 mM) are prepared in deionized water. A stock solutions of Compounds R1 and R2 (0.2 mM) are each prepared in ethanol and then diluted to 20 µM with ethanol-water (1: 1, v/v, pH 7.04) for spectral measurement. For titration experiments, a 2.0 mL solution of Compounds R1 and R2 (20 µM) are filled in a respective quartz optical cell of 1 cm optical path length. Sn^2+ stock solution is added into the quartz optical cell gradually by micro-pipette. Spectral data is recorded at 5 min after addition. In selectivity experiments, the test samples are prepared by placing appropriate amounts of metal ion stock into 2.0 mL solution of R1, R2 (20 µM). For fluorescence measurements, excitation is provided at 560 nm, while emission is collected from 565 to 700 nm.

Data set [2] in a line: pH titration of probe fluorescence. Type of data set: physicochemical. To be noted: 10 µM in PBS, fluorescence at 580 nm, excitation 560 nm, no Sn^2+.
Procedure: pH titration of Compounds R1 and R2 is described. Stock solutions of Compounds R1 and R2 are respectively added to sodium phosphate buffers of various pH to a final concentration of 10 µM. The fluorescence emission spectra are recorded as a function of pH using λex at 560 nm. The titration curves are plotted by fluorescence emission intensities at 580 nm versus pH.
The impact of pH values on fluorescence is described. The pirolactam ring of the rhodamine derivatives will open in a certain pH range and indicates the fluorescence of rhodamine. It is therefore necessary to check the fluorescence properties of Compounds R1 and R2 in solutions with different pH values. […] Considering the application of Sn^2+ probe R1 and R2 intracellular or extracellular may be disturbed by the pH, the acid-base titration experiments are carried out by adjusting the pH with an aqueous solution of NaOH and HCl in Phosphate-Buffered Saline ("PBS") (Fig.2 a and b). […] Figures 2a and 2b show the dependence of fluorescence at 580 nm of comparative Compound R1 and inventive Compound R2 (10 µM) at different pH in PBS solution. Excitation was at 560 nm.

Results on 2 compounds are retold here after EP2961753B1, “STANNOUS FLUORESCENT PROBE” (priority 2014, dated 2015).

In the case of `CCN(CC)c1ccc2c(c1)Oc1cc(N(CC)CC)ccc1C21c2ccccc2C(=O)N1NC(=O)OC(C)(C)C` [Compound R2], in data set [1], the “fluorescence at 580 nm” value is “turned on and grown drastically”; the “fluorescence of the solution” value was “non-fluorescent”; the “selectivity on sensing Sn^2+: metal ions that turn fluorescence on” value is “tuning on just in the presence of Sn^2+ and Cr^3+”; the “fluorescence enhancement by other transition and heavy metal ions” value is on record as “minimal enhancement”. Besides, the “pH range for inducing fluorescence turning on” value in data set [2] is on record as 2-4.5.
Consider “Spiro[1H-isoindole-1,9'-[9H]xanthen]-3(2H)-one, 2-[2-[bis(2-hydroxyethyl)amino]amino]ethyl]-3',6'-bis(diethylamino) [Compound R1]”, for which, in data set [1], the “fluorescence at 580 nm” value was “turned on and grown drastically”; the “fluorescence of the solution” value is “non-fluorescent”; the “selectivity on sensing Sn^2+: metal ions that turn fluorescence on” value was “tuning on just in the presence of Sn^2+ and Cr^3+”; the “fluorescence enhancement by other transition and heavy metal ions” value is on record as “minimal enhancement”. Besides, the “pH range for inducing fluorescence turning on” value in data set [2] is listed as 2.5-6.
